This assay concerns the target T1, human FSH receptor (Homo sapiens, UniProt P23945).
T1 construct: expressed in transfected cells
T1 sequence (P23945 18-695): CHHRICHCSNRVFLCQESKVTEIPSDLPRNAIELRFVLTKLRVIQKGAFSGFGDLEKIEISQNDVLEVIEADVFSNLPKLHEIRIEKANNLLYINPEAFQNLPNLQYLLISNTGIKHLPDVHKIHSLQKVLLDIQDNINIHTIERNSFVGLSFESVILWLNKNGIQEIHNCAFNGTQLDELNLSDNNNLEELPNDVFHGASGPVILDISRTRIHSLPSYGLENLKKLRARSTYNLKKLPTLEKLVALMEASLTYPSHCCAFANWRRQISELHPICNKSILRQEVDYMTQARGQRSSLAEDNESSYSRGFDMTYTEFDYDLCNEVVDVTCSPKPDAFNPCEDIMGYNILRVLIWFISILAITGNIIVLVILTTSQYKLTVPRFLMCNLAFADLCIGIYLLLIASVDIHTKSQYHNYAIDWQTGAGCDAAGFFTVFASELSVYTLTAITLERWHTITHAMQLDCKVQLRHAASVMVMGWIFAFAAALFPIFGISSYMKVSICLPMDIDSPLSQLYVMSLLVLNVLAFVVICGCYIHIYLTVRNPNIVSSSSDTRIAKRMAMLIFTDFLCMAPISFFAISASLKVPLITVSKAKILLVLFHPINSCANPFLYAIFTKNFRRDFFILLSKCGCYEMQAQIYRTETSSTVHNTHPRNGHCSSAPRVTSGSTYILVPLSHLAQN
The experiment in a line: hFSHRago (CHO luc): agonistic activity at the human FSH receptor expressed in CHO cells, CRE-luciferase reporter. The note with it: CHO cells stably transfected with human FSH receptor and CRE/luciferase reporter; 4 hours of incubation. In kind it is cell-based. (In general: Reporter assays use an easily measured gene product as a stand-in for the process of interest.)
Regarding `COc1cc2c(cc1OC(C)C)-c1c(-c3cccs3)cc(C(=O)N(C)C3C[C@@H]4CN(C(C)=O)C[C@@H]4C3)n1CC2` (stereo partly drawn) [Example 24, 9-Isopropoxy-8-methoxy-1-thiophen-2-yl-5,6-dihydro-pyrrolo[2,1-α]isoquinoline-3-carboxylic acid (2-acetyl-octahydro-cyclopenta[c]pyrrol-5(endo)-yl)-methyl-amide], the midpoint of the response, the EC50, lay at 191 nM.

As for `COc1cc2c(cc1OC(C)C)-c1c(-c3cccs3)cc(C(=O)N3C[C@H]4C[C@@H](N(C)C(C)=O)C[C@H]4C3)n1CC2` [Example 26, N-[2-(9-Isopropoxy-8-methoxy-1-thiophen-2-yl-5,6-dihydro-pyrrolo[2,1-α]isoquinoline-3-carbonyl)-octahydro-cyclopenta[c]pyrrol-5-yl]-N-methyl-acetamide], the EC50 was determined as 173 nM.

The compound `CCC1CCCN1C(=O)c1cc(-c2cccs2)c2n1CCc1cc(OC)c(OC(C)C)cc1-2` (stereo not drawn) [Example 27, (2-Ethyl-pyrrolidin-1-yl)-(9-isopropoxy-8-methoxy-1-thiophen-2-yl-5,6-dihydro-pyrrolo[2,1-α]isoquinolin-3-yl)-methanone] had an EC50 of 16.2 nM.

For `COc1cc2c(cc1OC(C)C)-c1c(-c3cccs3)cc(C(=O)N3CCCC3c3cccc(F)c3)n1CC2` (stereo not drawn) [Example 28, [2-(3-Fluoro-phenyl)-pyrrolidin-1-yl]-(9-isopropoxy-8-methoxy-1-thiophen-2-yl-5,6-dihydro-pyrrolo[2,1-α]isoquinolin-3-yl)-methanone], the response was half-maximal at 752 nM (EC50).

In turn, `COc1cc2c(cc1OC(C)C)-c1c(-c3cccs3)cc(C(=O)N3CCCC3c3cccnc3)n1CC2` (stereo not drawn) [Example 29, (9-Isopropoxy-8-methoxy-1-thiophen-2-yl-5,6-dihydro-pyrrolo[2,1-α]isoquinolin-3-yl)-(2-pyridin-3-yl-pyrrolidin-1-yl)-methanone] yielded an EC50 of 624 nM.

`COc1cc2c(cc1OC(C)C)-c1c(-c3cccs3)cc(C(=O)N(C)N(C)C)n1CC2` [Example 31, 9-Isopropoxy-8-methoxy-1-thiophen-2-yl-5,6-dihydro-pyrrolo[2,1-α]isoquinoline-3-carboxylic acid trimethylhydrazide] returned an EC50 of 241 nM.

In the case of `COc1cc2c(cc1OC(C)C)-c1c(-c3cccs3)cc(C(=O)N(C)N3CCCC3)n1CC2` [Example 32, 9-Isopropoxy-8-methoxy-1-thiophen-2-yl-5,6-dihydro-pyrrolo[2,1-α]isoquinoline-3-carboxylic acid methyl-pyrrolidin-1-yl-amide], the EC50 worked out at 55.2 nM.

As to `COc1cc2c(cc1OC(C)C)-c1c(-c3cccs3)cc(C(=O)N[C@@H]3CCCN(C(=O)C4CCC4)C3)n1CC2` [Example 33c, 9-Isopropoxy-8-methoxy-1-thiophen-2-yl-5,6-dihydro-pyrrolo[2,1-α]isoquinoline-3-carboxylic acid ((R)-1-cyclobutanecarbonyl-piperidin-3-yl)-amide], the EC50 was found to be 252 nM. This EC50 lies about 4.6-fold higher than the previous one.

Compound `CCN(C(=O)c1cc(-c2cccs2)c2n1CCc1cc(OC)c(OC(C)C)cc1-2)[C@@H]1CCCN(C(=O)C2CCC2)C1` [Example 33d, 9-Isopropoxy-8-methoxy-1-thiophen-2-yl-5,6-dihydro-pyrrolo[2,1-α]isoquinoline-3-carboxylic acid ((R)-1-cyclobutanecarbonyl-piperidin-3-yl)-ethyl-amide] gave an EC50 of 279 nM.

Take `COc1cc2c(cc1OC(C)C)-c1c(-c3cccs3)cc(C(=O)N[C@@H]3CCCN(C(C)=O)C3)n1CC2` [Example 34c, 9-Isopropoxy-8-methoxy-1-thiophen-2-yl-5,6-dihydro-pyrrolo[2,1-α]isoquinoline-3-carboxylic acid ((R)-1-acetyl-piperidin-3-yl)-amide]: the response was half-maximal at 251 nM (EC50).

Compound `COc1cc2c(cc1OC(C)C)-c1c(-c3cccs3)cc(C(=O)N(C)[C@@H]3CCCN(C(C)=O)C3)n1CC2` [Example 34d, 9-Isopropoxy-8-methoxy-1-thiophen-2-yl-5,6-dihydro-pyrrolo[2,1-α]isoquinoline-3-carboxylic acid ((R)-1-acetyl-piperidin-3-yl)-methyl-amide] displayed an EC50 of 496 nM.

Consider `COc1cc2c(cc1OC(C)C)-c1c(-c3ccccn3)cc(C(=O)N3CCCN(C(=O)c4ccccn4)CC3)n1CC2` [Example 35, (9-Isopropoxy-8-methoxy-1-pyridin-2-yl-5,6-dihydro-pyrrolo[2,1-α]isoquinolin-3-yl)-[4-(pyridine-2-carbonyl)-[1,4]diazepan-1-yl]-methanone; trifluoro acetic acid], for which it took 244 nM to reach a half-maximal effect (EC50).

`COc1cc2ccn3c(C(=O)N(C)C(C)(C)C)cc(-c4cccs4)c3c2cc1OCCO` [Example 36, 9-(2-Hydroxy-ethoxy)-8-methoxy-1-thiophen-2-yl-pyrrolo[2,1-α]isoquinoline-3-carboxylic acid tert-butyl-methyl-amide] returned an EC50 of 2.5 nM.

`COc1cc2c(cc1OC(C)C)-c1c(Br)cc(C(=O)N(C)C(C)(C)C)n1CC2` [Example 37c, 1-Bromo-9-isopropoxy-8-methoxy-5,6-dihydro-pyrrolo[2,1-α]isoquinoline-3-carboxylic acid tert-butyl-methyl-amide] came in with a concentration giving a half-maximal response (EC50) of 234 nM.

As to `COc1cc2c(cc1OC(C)C)-c1c(C#N)cc(C(=O)N(C)C(C)(C)C)n1CC2` [Example 37d, 1-Cyano-9-isopropoxy-8-methoxy-5,6-dihydro-pyrrolo[2,1-α]isoquinoline-3-carboxylic acid tert-butyl-methyl-amide], a half-maximal response (EC50) required 67.1 nM. This EC50 lies about 3.5-fold lower than the previous one.

As to `COc1cc2c(cc1OC(C)C)-c1c(-c3nnn[nH]3)cc(C(=O)N(C)C(C)(C)C)n1CC2` [Example 38, 9-Isopropoxy-8-methoxy-1-(1H-tetrazol-5-yl)-5,6-dihydro-pyrrolo[2,1-α]isoquinoline-3-carboxylic acid tert-butyl-methyl-amide], it took 1640 nM to reach a half-maximal effect (EC50). This EC50 lies about 24-fold higher than the previous one.

The compound `COc1cc2c(cc1OC(C)C)-c1c(-c3cccs3)c(C=O)c(C(=O)N(C)C(C)(C)C)n1CC2` [Example 39, 2-Formyl-9-isopropoxy-8-methoxy-1-thiophen-2-yl-5,6-dihydro-pyrrolo[2,1-α]isoquinoline-3-carboxylic acid tert-butyl-methyl-amide] returned an EC50 of 2.7 nM.

`COc1cc2c(cc1OC(C)C)-c1c(-c3cccs3)c(CO)c(C(=O)N(C)C(C)(C)C)n1CC2` [Example 40, 2-Hydroxymethyl-9-isopropoxy-8-methoxy-1-thiophen-2-yl-5,6-dihydro-pyrrolo[2,1-α]isoquinoline-3-carboxylic acid tert-butyl-methyl-amide]: the EC50 came out at 8.8 nM.

Turning to `COCc1c(-c2cccs2)c2n(c1C(=O)N(C)C(C)(C)C)CCc1cc(OC)c(OC(C)C)cc1-2` [Example 41, 9-Isopropoxy-8-methoxy-2-methoxymethyl-1-thiophen-2-yl-5,6-dihydro-pyrrolo[2,1-α]isoquinoline-3-carboxylic acid tert-butyl-methyl-amide], the EC50 came out at 2.8 nM.

On to `COc1cc2c(cc1OC(C)C)-c1c(-c3cccs3)c(C=NO)c(C(=O)N(C)C(C)(C)C)n1CC2` [Example 42, 2-(Hydroxyimino-methyl)-9-isopropoxy-8-methoxy-1-thiophen-2-yl-5,6-dihydro-pyrrolo[2,1-α]isoquinoline-3-carboxylic acid tert-butyl-methyl-amide], for which the concentration for a half-maximal effect (EC50) turned out to be 1.2 nM. Against the preceding compound, the EC50 is about 2.3-fold lower.

The compound `CON=Cc1c(-c2cccs2)c2n(c1C(=O)N(C)C(C)(C)C)CCc1cc(OC)c(OC(C)C)cc1-2` [Example 43, 9-Isopropoxy-8-methoxy-2-(methoxyimino-methyl)-1-thiophen-2-yl-5,6-dihydro-pyrrolo[2,1-α]isoquinoline-3-carboxylic acid tert-butyl-methyl-amide] displayed an EC50 of 4.3 nM. Compared with the last compound, the EC50 is about 3.6-fold higher.

With `COc1cc2c(cc1OC(C)C)-c1c(-c3cccs3)cc(C(=O)CC(C)(C)C)n1CC2` [Example 45], the response was half-maximal at 65.1 nM (EC50).

Compound `COc1cc2c(cc1OC(C)C)-c1c(-c3cccs3)cc(C(=O)C3CCCC3)n1CC2` [Example 46, Cyclopentyl-(9-isopropoxy-8-methoxy-1-thiophen-2-yl-5,6,6a,10a-tetrahydro-pyrrolo[2,1-α]isoquinolin-3-yl)-methanone] gave an EC50 of 78.2 nM.

As for `COc1cc2c(cc1OC(C)C)-c1c(-c3cccs3)cc(C(=O)C(C)N(C)C)n1CC2` (stereo not drawn) [Example 47, 2-Dimethylamino-1-(9-isopropoxy-8-methoxy-1-thiophen-2-yl-5,6-dihydro-pyrrolo[2,1-α]isoquinolin-3-yl)-propan-1-one], the EC50 was 149 nM.

In turn, `COc1cc2c(cc1OC(C)C)-c1c(-c3cccs3)cc(C(=O)C(C)N3CCOCC3)n1CC2` (stereo not drawn) [Example 48, 1-(9-Isopropoxy-8-methoxy-1-thiophen-2-yl-5,6-dihydro-pyrrolo[2,1-α]isoquinolin-3-yl)-2-morpholin-4-yl-propan-1-one] showed an EC50 of 89.4 nM.

Turning to `COc1cc2c(cc1OC(C)C)-c1c(-c3cccs3)cc(C(=O)C(C)N3CCCN(C(C)=O)CC3)n1CC2` (stereo not drawn) [Example 49, 2-(4-Acetyl-[1,4]diazepan-1-yl)-1-(9-isopropoxy-8-methoxy-1-thiophen-2-yl-5,6-dihydro-pyrrolo[2,1-α]isoquinolin-3-yl)-propan-1-one], the 50% effective concentration (EC50) came out at 200 nM.

For orientation: EC50 means the concentration giving half of the maximal effect. Higher therefore signals a need for much substance.

The values above are taken from US8394789B2, “(Dihydro)pyrrolo[2,1-α]isoquinolines” (MSD Oss B.V., priority 2008, dated 2013).
